“Also recorded” adds a separate entry of the source. Values belong to the compound of their own block, whether it stands above or below them.
Legend:
[1] = target: T1, mouse TRPA1 (Mus musculus, UniProt Q8BLA8); experiment: FLIPR calcium-influx assay, block of cinnamaldehyde activation, CHO cells; format: cell-based
T1 construct: expressed in transfected cells; host or cells: CHO cells (tetracycline-induced for PatchXpress; mTRPA1-pcDNA5 named for the transient labelling experiment)

[2] = target: T1, mouse TRPA1; experiment: Whole-cell electrophysiology of TRPA1-expressing CHO cells (pressure, hyperosmolarity, cold); format: cell-based; conditions: for block of TRPA1 currents in response to hyperosmolarity: bath application, 2 min stimulus
Text: We tested if TRPA1 is activated by mechanical forces. The electrophysiological behavior of thermoTRP-expressing Chinese Hamster Ovary (CHO) cells was investigated with two different assays of mechanical stress—pressure application using the recording pipette and changes in external osmolarity.
(§1) Mechanosensory neurons are often classified as high- or low-threshold, characterizing responses to pain and touch, respectively. We tested the mechanical threshold of TRPA1 by applying a wide range of negative pipette pressures (FIG. 1C). TRPA1-expressing CHO cells are activated at −90 mmHg or higher, consistent with native high-threshold mechanical receptors involved in sensing pain (Cho et al., J Neurosci 22:1238, 2002). […] Gadolinium (Gd^3+) is considered a blocker of native mechanically-gated ion channels in animal tissues (Martinac et al., Physiol Rev 81:685, 2001). […] FM1-43 is a styryl dye that specifically labels sensory cells by entering through open transduction channels. […] Furthermore, it was observed that 10 μM of FM1 -43 was able to block cinnamaldehyde-induced currents in TRPA1-expressing CHO cells (n=8).
(§2) To ensure that the mechanical response we observe is not an artifact of heterologous expression system, we tested if native TRPA1-expressing neurons also respond to such stimuli. 5/6 cinnamaldehyde-sensitive (presumptive TRPA1-expressing) DRG neurons responded to an application of −200 mmHg of suction, while 0/21 cinnamaldehyde insensitive neurons responded (16 of 21 were capsaicin-sensitive) (FIG. 2B). Millimolar camphor was recently reported to inhibit basal currents and cold or agonist-activation of TRPA1.
Mammalian cell electrophysiology: ThermoTRP-expressing CHO cells (rat TRPV1, rat TRPV2, mouse TRPV3, rat TRPV4, mouse TRPM8, and mouse TRPA1), control CHO cells, and cultured rat DRG neurons were prepared as described in Story et al., Cell 112:819, 2003; and Bandell et al., Neuron 41:849, 2004. Electrophysiological recordings were performed as described in Bandell et al., Neuron 41:849, 2004. Briefly, CHO cells were clamped at −60 mV and 0.8 second ramps from −80 mV to +80 mV were run every 4 seconds. Currents from DRG neurons were recorded at −60 mV and for their current-voltage curve, 300 ms voltage step at +20 mV was used 40 ms before 800 ms ramp from -80 mV to +80 mV to minimize contamination of voltage gated Na^+ or Ca^2+ current. The pipette solution for temperature and hyperosmotic experiments consisted of (in mM) 140 CsCl, 5 EGTA, 10 HEPES, 2 MgATP, 0.2 NaGTP, titrated to pH 7.4 with CsOH. The base external solution for these experiments consisted of (in mM) 140 NaCl, 5KCl, 10 HEPES, 2CaCl2, 1MgCl2, titrated to pH 7.4 with NaOH. Mannitol was used to adjust osmolarity for hypertonic solutions. For mouse TRPV3 and rat TRPV2, external calcium was replaced with 5 mM EGTA. Gluconate was substituted for chloride in (±)-pressure and hypotonic experiments to eliminate the potential for endogenous swelling-activated chloride currents. For these experiments, pipette solution (295 mOsm) consisted of (in mM) 125 Cs-gluconate, 15CsCl, 5 EGTA, 10 HEPES, 2 MgATP, 0.2NaGTP, titrated to pH 7.4 with CsOH. The external solution consisted of (in mM) 90 Na-gluconate, 10 NaCl, 5 K-gluconate, 10 HEPES, 2 CaCl2, 1 MgCl2, titrated to pH 7.4 with NaOH. Osmolarity was adjusted with mannitol to 220 mOsm (hypotonic) or 298 mOsm 15 (isotonic). (±)-Pressure was hydrostatically delivered by the recording pipette using syringe pumping (Hamill et al., Annu Rev Physiol 59:621, 1997) and monitored through Pressure Monitor (World Precision Instruments). Warner temperature controller (TC-324B and CL-100) was used for the heating or cooling the perfused bath solutions. […] The number of cells (n) tested with -100 mmHg to −300 mmHg, ˜+100 mmHg, 450 mOsm, and 220 mOsm for each cell type, respectively, are: CHO cells, n=7, 14, 5, 12; TRPV1, n=6, 5, 7, 5; TRPV2, n=4, 5, 3, 5; TRPV3, n=3, 2, 3, 0; TRPM8, n=12, 4, 10, 0. […]

[3] = system: cultured rat DRG neurons; experiment: Current response of cultured DRG neurons to negative pressure; format: cell-based; conditions: 2 mM camphor, −150 mmHg
Text: as §2
Mammalian cell electrophysiology: ThermoTRP-expressing CHO cells (rat TRPV1, rat TRPV2, mouse TRPV3, rat TRPV4, mouse TRPM8, and mouse TRPA1), control CHO cells, and cultured rat DRG neurons were prepared as described in Story et al., Cell 112:819, 2003; and Bandell et al., Neuron 41:849, 2004. Electrophysiological recordings were performed as described in Bandell et al., Neuron 41:849, 2004. […] Currents from DRG neurons were recorded at −60 mV and for their current-voltage curve, 300 ms voltage step at +20 mV was used 40 ms before 800 ms ramp from -80 mV to +80 mV to minimize contamination of voltage gated Na^+ or Ca^2+ current. […] (±)-Pressure was hydrostatically delivered by the recording pipette using syringe pumping (Hamill et al., Annu Rev Physiol 59:621, 1997) and monitored through Pressure Monitor (World Precision Instruments). […]

[4] = target: T2, TRPA1 (Homo sapiens, UniProt O75762); experiment: PatchXpress whole cell patch clamp, cinnamaldehyde-elicited current, CHO cells; format: cell-based; design: expressed in transfected cells; host or cells: CHO cell line; conditions: 10 μM FM1-43 with 100 μM cinnamaldehyde, −80 mV
Protocol: (§3) FM1-43 experiments: The FM1-43 labeling of CHO cells transfected with mTRPA1 was performed as described (Meyers et al., J Neurosci 23:4054, 2003). Briefly, CHO cells were transfected using Fugene (Roche) with mTRPA1-pcDNA5. For mock transfection CHO cells were treated with Fugene, but without any plasmid DNA. 24 hrs after transfection the cells were incubated for 5 min with 200 μM cinnamaldehyde in physiological buffer (consisted of (in mM) 130 NaCl, 3 KCl, 2 MgCl2, 2 CaCl2, 10 HEPES, 10 glucose) at room temperature, followed by 3 min with 10 μM of FM1-43. The cells were then washed thoroughly and imaged. mTRPA1 and hTRPA1-expressing CHO cells were tested in whole cell patch clamp configuration using the PatchXpress (Axon Instruments) for the effect of the FM143 dye on TRPA1 activation. Cells were plated the day before testing and induced with 0.5 μg/ml tetracycline as previously described in Story et al., Cell 112:819, 2003. Immediately prior to testing, cells were trypsinized and resuspended in calcium-free DMEM media (Invitrogen). Recordings were performed in extracellular solution containing (in mM) 2.67 KCl, 1.47 KH2PO4, 0.5 MgCl2, 138 NaCl, 8 Na2HPO4, 5.6 glucose. The intracellular solution contained (in mM) 140 KCl, 10 HEPES, 20 glucose, 10 HEDTA and 1 μM buffered free Calcium. Holding currents at −80 mV were used for quantitative analysis of TRPA1 activation and inhibition. […]
Target sequence in this assay (O75762 whole entry): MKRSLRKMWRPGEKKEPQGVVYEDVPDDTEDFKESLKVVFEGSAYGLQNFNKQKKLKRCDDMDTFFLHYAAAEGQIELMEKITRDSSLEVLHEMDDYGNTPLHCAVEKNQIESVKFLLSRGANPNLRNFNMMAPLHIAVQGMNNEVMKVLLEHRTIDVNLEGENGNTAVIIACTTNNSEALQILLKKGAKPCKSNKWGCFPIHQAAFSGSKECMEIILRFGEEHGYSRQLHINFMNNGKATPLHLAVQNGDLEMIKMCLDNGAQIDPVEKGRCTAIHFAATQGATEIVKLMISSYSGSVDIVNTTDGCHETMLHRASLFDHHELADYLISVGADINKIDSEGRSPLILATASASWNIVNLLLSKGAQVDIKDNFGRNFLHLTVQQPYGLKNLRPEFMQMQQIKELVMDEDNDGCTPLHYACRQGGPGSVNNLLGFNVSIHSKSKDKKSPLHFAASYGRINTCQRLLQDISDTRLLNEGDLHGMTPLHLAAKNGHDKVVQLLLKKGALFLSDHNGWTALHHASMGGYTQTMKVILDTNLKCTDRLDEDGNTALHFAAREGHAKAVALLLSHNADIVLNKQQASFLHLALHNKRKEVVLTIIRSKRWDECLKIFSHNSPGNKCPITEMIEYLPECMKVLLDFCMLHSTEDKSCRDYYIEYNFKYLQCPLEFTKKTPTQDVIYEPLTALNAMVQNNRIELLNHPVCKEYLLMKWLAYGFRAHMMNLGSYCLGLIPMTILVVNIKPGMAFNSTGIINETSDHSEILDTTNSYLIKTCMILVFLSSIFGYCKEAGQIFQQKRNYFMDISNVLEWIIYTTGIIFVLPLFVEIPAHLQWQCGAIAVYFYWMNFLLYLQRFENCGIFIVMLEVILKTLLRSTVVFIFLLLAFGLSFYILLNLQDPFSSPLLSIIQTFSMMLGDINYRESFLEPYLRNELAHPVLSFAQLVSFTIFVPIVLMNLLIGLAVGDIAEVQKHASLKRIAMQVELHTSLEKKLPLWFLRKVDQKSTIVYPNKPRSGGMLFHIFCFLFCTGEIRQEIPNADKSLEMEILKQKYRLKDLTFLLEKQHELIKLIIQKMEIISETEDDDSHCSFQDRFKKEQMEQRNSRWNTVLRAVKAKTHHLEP

[5] = target: T3, mTRPA1 (Mus musculus, UniProt Q8BLA8); experiment: as above; format: cell-based
T3 construct: expressed in transfected cells; host or cells: CHO cells (tetracycline-induced for PatchXpress; mTRPA1-pcDNA5 named for the transient labelling experiment)
Text: as §1
as §3, with “Recordings were performed in extracellular solution containing (in mM) 2.67 KCl, 1.47 KH2PO4, 0.5 MgCl2, 138 NaCl, 8 Na2HPO4, 5.6 glucose. The intracellular solution contained (in mM) 140 KCl, 10 HEPES, 20 glucose, 10 HEDTA and 1 μM buffered free Calcium.” left out

[6] = system: CFA-induced heat hyperalgesia; experiment: CFA-induced heat hyperalgesia; format: in vivo; conditions: mice
[7] = system: bradykinin (BK)-induced heat hyperalgesia; experiment: Bradykinin-induced heat hyperalgesia; format: in vivo; conditions: mice
[8] = system: CFA-induced mechanical hyperalgesia; experiment: CFA-induced mechanical hyperalgesia (Von Frey threshold); format: in vivo; conditions: injected into hindpaw 24 hours after CFA, mice
[9] = target: T2, TRPA1; experiment: TRPA1 block, test not specified; conditions: summary statement
Target sequence in this assay (O75762 whole entry, species assumed): as the sequence (O75762 whole entry) above

[10] = system: TRPV1, TRPV2, TRPV3, TRPV4, or TRPM8; experiment: Effect on other thermoTRPs (summary statement); format: cell-based
Text: TRPA1 inhibitors that can be employed in the practice of the present invention include compounds that interferes with the expression, modification, regulation or activation of TRPA1, or compounds that down-regulates one or more of the normal biological activities of TRPA1 (e.g., its ion channel). […] Various TRPA1-specific antagonists can be used in the instant invention. Some of these TRPA1-specific inhibitors are identified by the present inventors, as described in the Examples below. These compounds can be obtained commercially or are otherwise described in the art. One such compound is Compound 18, (Z)-4-(4-chlorophynyl)-3-methylbut-3-en-2-oxime. This compound can be obtained commercially from Maybridge (Cornwall, UK). Another example is Compound 40, N,N′-Bis-(2-hydroxybenzyl)-2,5-diamino-2,5-dimethylhexane, which has been described in U.S. Pat. No. 4,129,556. […] Thus, these two compounds can be readily used to treat or alleviate mechanical hyperalgesia as described in more detail below.

[11] = system: BK-induced nociceptive mechanical behaviours; experiment: Bradykinin-induced mechanical hyperalgesia (Von Frey threshold); format: in vivo; conditions: short term hyperalgesia model, 1 mM coinjected, mice

T3 sequence (Q8BLA8 whole entry): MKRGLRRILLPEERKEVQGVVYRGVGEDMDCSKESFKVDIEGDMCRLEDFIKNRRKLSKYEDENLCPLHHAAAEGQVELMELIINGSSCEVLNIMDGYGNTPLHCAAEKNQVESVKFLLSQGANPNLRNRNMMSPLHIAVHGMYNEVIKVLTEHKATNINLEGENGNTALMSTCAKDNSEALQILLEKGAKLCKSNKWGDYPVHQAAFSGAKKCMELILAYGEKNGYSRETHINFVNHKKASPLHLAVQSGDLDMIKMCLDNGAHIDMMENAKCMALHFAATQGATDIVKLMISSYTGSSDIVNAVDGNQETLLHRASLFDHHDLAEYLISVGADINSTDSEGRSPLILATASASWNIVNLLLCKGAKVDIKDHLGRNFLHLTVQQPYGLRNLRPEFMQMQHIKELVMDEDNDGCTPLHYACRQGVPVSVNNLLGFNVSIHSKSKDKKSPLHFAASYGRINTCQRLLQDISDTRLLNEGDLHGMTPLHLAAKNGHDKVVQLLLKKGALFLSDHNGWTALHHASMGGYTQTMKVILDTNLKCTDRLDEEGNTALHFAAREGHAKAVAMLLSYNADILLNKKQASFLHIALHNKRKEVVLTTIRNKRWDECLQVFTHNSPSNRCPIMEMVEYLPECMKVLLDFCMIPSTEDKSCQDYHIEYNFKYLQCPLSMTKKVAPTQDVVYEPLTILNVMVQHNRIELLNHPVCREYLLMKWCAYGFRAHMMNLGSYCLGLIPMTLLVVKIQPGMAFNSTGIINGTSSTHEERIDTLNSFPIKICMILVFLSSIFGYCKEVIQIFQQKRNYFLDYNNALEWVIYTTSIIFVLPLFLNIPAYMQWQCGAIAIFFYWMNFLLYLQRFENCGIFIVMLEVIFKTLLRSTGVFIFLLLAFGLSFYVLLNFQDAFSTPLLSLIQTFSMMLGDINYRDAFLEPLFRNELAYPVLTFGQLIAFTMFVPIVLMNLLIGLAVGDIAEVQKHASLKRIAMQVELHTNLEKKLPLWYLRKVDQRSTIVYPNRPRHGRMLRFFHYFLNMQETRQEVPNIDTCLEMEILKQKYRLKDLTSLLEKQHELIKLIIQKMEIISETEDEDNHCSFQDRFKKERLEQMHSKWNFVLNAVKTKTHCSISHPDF
T1 sequence (Q8BLA8 whole entry): as above

SMILES: O=CC=Cc1ccccc1 [cinnamaldehyde]
EC50 ([1]; control (no compound 18)): 50 µM
EC50 ([1]; with 25 μM compound 18): 220 µM

SMILES: N.N.N.N.N.N.N.N.N.N.N.N.N.N.[Cl-].[Cl-].[Cl-].[Cl-].[Cl-].[Cl-].[O-2].[O-2].[Ru+3].[Ru+3].[Ru+4] [ruthenium red]
block of mechanosensitive TRPA1 currents upon hyperosmolarity ([2]; 5 μM ruthenium red, 450 mOsm): completely blocked
block of mechanosensitive TRPA1 currents upon (−) pressure ([2]; 5 μM ruthenium red, -100 mmHg): completely blocked

SMILES: [Gd+3] [Gd3+, Gadolinium]
block of TRPA1 currents in response to negative pressure ([2]; 10 μM Gd3+, -100 mmHg): completely and reversibly blocked
block of TRPA1 currents in response to hyperosmolarity ([2]; 10 μM Gd3+, 450 mOsm): completely blocks
block of TRPA1 currents in response to hyperosmolarity ([2]; 10 μM Gd3+, 450 mOsm, listed as Gd^3+): completely and reversibly blocked

SMILES: CC(C)(CCC(C)(C)NCc1ccccc1O)NCc1ccccc1O [Compound 40, N,N′-Bis-(2-hydroxybenzyl)-2,5-diamino-2,5-dimethylhexane]
CFA-induced heat hyperalgesia [6]: very similar results
BK-induced heat hyperalgesia [7]: very similar results
CFA-induced mechanical hyperalgesia [8]: very similar results
inhibition of TRPA1 activation or function [9]: specifically inhibit TRPA1 activation or function; also recorded: blocks TRPA1
effect on activation or activities of the other thermoTRPs [10]: little or no effect
BK-induced mechanical nociceptive behavior [11]: very similar results

Second part, led by results:

block of current activation of TRPA1 upon (−) pressure in CHO cells ([2]; 2 mM camphor, −100 mmHg): completely block
SMILES: CC12CCC(CC1=O)C2(C)C (stereo not shown) [camphor]
block of current response of DRG neurons to (−) pressure [3]: completely blocks; also recorded: fully inhibited

cells in which an inhibition of the current was observed [4]: 3/4
block of cinnamaldehyde-induced currents in TRPA1-expressing CHO cells ([5]; 10 μM FM1-43): able to block
cells in which an inhibition of the current was observed ([5]; 10 μM FM1-43 with 100 μM cinnamaldehyde, −80 mV): 7/8
block in current, on average ([5]; 10 μM FM1-43 with 100 μM cinnamaldehyde, average stated for mTRPA1 and hTRPA1 cells together): 50%
SMILES: CCCCN(CCCC)c1ccc(/C=C/c2cc[n+](CCC[N+](CC)(CC)CC)cc2)cc1.[Br-].[Br-] [FM1-43]
